Laboratory results taken from patent publication US6358885B1, “Substituted phenylheterocyclic herbicides” (Mississippi State University, priority 1992, dated 2002).

How the values were obtained:
giant foxtail [1] = assay: Test C preemergence/postemergence greenhouse plant response rating 0 to 100; format: in vivo, Setaria faberii; details: for Plant response rating, Giant foxtail: 125 g/ha, 0 to 100 scale
Method in brief: (§1)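 Compounds in non-phytotoxic solvent went onto sandy loam before emergence (seeded one day earlier) or onto plants at the one-to-four leaf stage. Duck salad was treated via flood water (~2.5 cm, maintained) over silt loam.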

corn = assay: Test B preemergence/postemergence greenhouse plant response rating 0 to 10; format: in vivo, Zea mays; details: 0 to 10 scale
Method in brief: (§2)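 Planted seeds are treated preemergence with compound dissolved in a non-phytotoxic solvent, while postemergence applications go onto plants of two to eighteen cm. Plants stay in the greenhouse twelve to sixteen days and are then rated visually relative to controls.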

wheat = assay: as above; format: in vivo, Triticum aestivum; details: 0 to 10 scale
Method in brief: as §2

wild oat = assay: Test C preemergence/postemergence greenhouse plant response rating 0 to 100; format: in vivo, Avena fatua; details: for Plant response rating, Wild oat: 125 g/ha, 0 to 100 scale
Method in brief: as §1

chickweed [2] = assay: as above; format: in vivo, Stellaria media; details: PREEMERGENCE
Method in brief: as §1

crabgrass [3] = assay: as above; format: in vivo, Digitaria sanguinalis; details: for Plant response rating, Crabgrass: 125 g/ha, 0 to 100 scale
Method in brief: as §1

duck salad = assay: Test C flood test plant response rating 0 to 100; format: in vivo, Heteranthera limosa
Method in brief: as §1

wild buckwheat = assay: Test C preemergence/postemergence greenhouse plant response rating 0 to 100; format: in vivo, Polygonum convolvulus; details: for Plant response rating, Wild buckwheat: 125 g/ha, 0 to 100 scale
Method in brief: as §1

bedstraw = assay: as above; format: in vivo, Galium aparine; details: for Plant response rating, Bedstraw: 125 g/ha, 0 to 100 scale
Method in brief: as §1

chickweed [4] = assay: Test B preemergence/postemergence greenhouse plant response rating 0 to 10; format: in vivo, Stellaria media; details: 0 to 10 scale
Method in brief: as §2

crabgrass [5] = assay: as above; format: in vivo, Digitaria spp.; details: 0 to 10 scale
Method in brief: as §2

rape = assay: as above; format: in vivo, Brassica napus; details: 0 to 10 scale
Method in brief: as §2

sorghum = assay: as above; format: in vivo, Sorghum bicolor; details: 0 to 10 scale
Method in brief: as §2

rice = assay: Test C flood test plant response rating 0 to 100; format: in vivo, Oryza sativa
Method in brief: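 Compounds in non-phytotoxic solvent applied preemergence to sandy loam one day after planting, postemergence at the 1–4 leaf stage, or to ~2.5 cm floodwater over silt loam.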

barnyardgrass = assay: Test B preemergence/postemergence greenhouse plant response rating 0 to 10; format: in vivo, Echinochloa crus-galli; details: 0 to 10 scale
Method in brief: as §2

giant foxtail [6] = assay: as above; format: in vivo, Setaria faberii; details: 0 to 10 scale
Method in brief: as §2

barley = assay: as above; format: in vivo, Hordeum vulgare; details: 0 to 10 scale
Method in brief: as §2

downy brome = assay: Test C preemergence/postemergence greenhouse plant response rating 0 to 100; format: in vivo, Bromus tectorum; details: for Plant response rating Downy Brome: 125 g/ha, 0 to 100 scale
Method in brief: as §1

[7] = POSTEMERGENCE section, flood test, Rate 2 g/ha
[8] = Rate 8 g/ha, under POSTEMERGENCE head (flood test species)
[9] = Rate 31 g/ha, under POSTEMERGENCE head (flood test species)
[10] = flood test species listed under POSTEMERGENCE, 125 g/ha, 0 to 100 scale

**Q.** Which results are given for `Fc1cc(Cl)ccc1-c1nn2c(c1Br)CCCC2` [Compound 52]?
**A.** Plant response rating, Giant foxtail (giant foxtail [1]; POSTEMERGENCE): 85; Plant response rating (0 to 100), Giant foxtail (giant foxtail [1]; POSTEMERGENCE, Rate 2 g/ha): 20; Plant response rating, Giant foxtail (giant foxtail [1]; PREEMERGENCE): 90; Plant response rating (0 to 100), Giant foxtail (giant foxtail [1]; PREEMERGENCE, Rate 2 g/ha): 0; Plant response rating (0 to 100), Giant foxtail (giant foxtail [1]; Rate 8 g/ha, POSTEMERGENCE): 40; Plant response rating (0 to 100), Giant foxtail (giant foxtail [1]; Rate 8 g/ha, PREEMERGENCE): 10; Plant response rating (0 to 100), Giant foxtail (giant foxtail [1]; Rate 31 g/ha, POSTEMERGENCE): 50; Plant response rating (0 to 100), Giant foxtail (giant foxtail [1]; Rate 31 g/ha, PREEMERGENCE): 30; Plant response rating, Corn (corn; POSTEMERGENCE, Rate 50 g/ha): 6; Plant response rating, Corn (corn; POSTEMERGENCE, Rate 200 g/ha): 8; Plant response rating, Corn (corn; PREEMERGENCE, Rate 50 g/ha): 1; Plant response rating, Corn (corn; Rate 200 g/ha, PREEMERGENCE): 4; Plant response rating, Wheat (wheat; POSTEMERGENCE, Rate 50 g/ha): 4; Plant response rating, Wheat (wheat; PREEMERGENCE, Rate 50 g/ha): 4; Plant response rating, Wheat (wheat; Rate 200 g/ha, POSTEMERGENCE): 8; Plant response rating, Wheat (wheat; Rate 200 g/ha, PREEMERGENCE): 7; Plant response rating, Wild oat (wild oat; POSTEMERGENCE): 60; Plant response rating (0 to 100), Wild oat (wild oat; POSTEMERGENCE, Rate 2 g/ha): 10; Plant response rating, Wild oat (wild oat; PREEMERGENCE): 20; Plant response rating (0 to 100), Wild oat (wild oat; PREEMERGENCE, Rate 2 g/ha): 0; Plant response rating (0 to 100), Wild oat (wild oat; Rate 8 g/ha, POSTEMERGENCE): 20; Plant response rating (0 to 100), Wild oat (wild oat; Rate 8 g/ha, PREEMERGENCE): 0; Plant response rating (0 to 100), Wild oat (wild oat; Rate 31 g/ha, POSTEMERGENCE): 30; Plant response rating (0 to 100), Wild oat (wild oat; Rate 31 g/ha, PREEMERGENCE): 0; Plant response rating, Chickweed (chickweed [2]; 125 g/ha, 0 to 100 scale): 20; Plant response rating (0 to 100), Chickweed (chickweed [2]; Rate 2 g/ha): 0; Plant response rating (0 to 100), Chickweed (chickweed [2]; Rate 8 g/ha): 0; Plant response rating (0 to 100), Chickweed (chickweed [2]; Rate 31 g/ha): 0; Plant response rating, Crabgrass (crabgrass [3]; POSTEMERGENCE): 70; Plant response rating (0 to 100), Crabgrass (crabgrass [3]; POSTEMERGENCE, Rate 2 g/ha): 10; Plant response rating, Crabgrass (crabgrass [3]; PREEMERGENCE): 80; Plant response rating (0 to 100), Crabgrass (crabgrass [3]; PREEMERGENCE, Rate 2 g/ha): 0; Plant response rating (0 to 100), Crabgrass (crabgrass [3]; Rate 8 g/ha, POSTEMERGENCE): 30; Plant response rating (0 to 100), Crabgrass (crabgrass [3]; Rate 8 g/ha, PREEMERGENCE): 0; Plant response rating (0 to 100), Crabgrass (crabgrass [3]; Rate 31 g/ha, POSTEMERGENCE): 40; Plant response rating (0 to 100), Crabgrass (crabgrass [3]; Rate 31 g/ha, PREEMERGENCE): 10; Plant response rating (0 to 100), Duck salad (duck salad; [7]): 0; Plant response rating (0 to 100), Duck salad (duck salad; [8]): 0; Plant response rating (0 to 100), Duck salad (duck salad; [9]): 20; Plant response rating Duck salad (duck salad; [10]): 85; Plant response rating, Wild buckwheat (wild buckwheat; POSTEMERGENCE): 100; Plant response rating, Wild buckwheat (wild buckwheat; PREEMERGENCE): 100; Plant response rating (0 to 100), Wild buckwheat (wild buckwheat; PREEMERGENCE, Rate 2 g/ha): 0; Plant response rating (0 to 100), Wild buckwheat (wild buckwheat; Rate 8 g/ha, POSTEMERGENCE): 40; Plant response rating (0 to 100), Wild buckwheat (wild buckwheat; Rate 8 g/ha, PREEMERGENCE): 0; Plant response rating (0 to 100), Wild buckwheat (wild buckwheat; Rate 31 g/ha, POSTEMERGENCE): 80; Plant response rating (0 to 100), Wild buckwheat (wild buckwheat; Rate 31 g/ha, PREEMERGENCE): 10; Plant response rating, Bedstraw (bedstraw; POSTEMERGENCE): 100; Plant response rating (0 to 100), Bedstraw (bedstraw; POSTEMERGENCE, Rate 2 g/ha): 50; Plant response rating, Bedstraw (bedstraw; PREEMERGENCE): 80; Plant response rating (0 to 100), Bedstraw (bedstraw; PREEMERGENCE, Rate 2 g/ha): 0; Plant response rating (0 to 100), Bedstraw (bedstraw; Rate 8 g/ha, POSTEMERGENCE): 70; Plant response rating (0 to 100), Bedstraw (bedstraw; Rate 8 g/ha, PREEMERGENCE): 0; Plant response rating (0 to 100), Bedstraw (bedstraw; Rate 31 g/ha, POSTEMERGENCE): 70; Plant response rating (0 to 100), Bedstraw (bedstraw; Rate 31 g/ha, PREEMERGENCE): 10; Plant response rating, Chickweed (chickweed [4]; POSTEMERGENCE, Rate 50 g/ha): 5; Plant response rating, Chickweed (chickweed [4]; POSTEMERGENCE, Rate 200 g/ha): 7; Plant response rating, Chickweed (chickweed [4]; PREEMERGENCE, Rate 50 g/ha): 9; Plant response rating, Chickweed (chickweed [4]; Rate 200 g/ha, PREEMERGENCE): 9; Plant response rating, Crabgrass (crabgrass [5]; POSTEMERGENCE, Rate 50 g/ha): 6; Plant response rating, Crabgrass (crabgrass [5]; POSTEMERGENCE, Rate 200 g/ha): 7; Plant response rating, Crabgrass (crabgrass [5]; PREEMERGENCE, Rate 50 g/ha): 2; Plant response rating, Crabgrass (crabgrass [5]; Rate 200 g/ha, PREEMERGENCE): 10; Plant response rating, Rape (rape; POSTEMERGENCE, Rate 50 g/ha): 8; Plant response rating, Rape (rape; PREEMERGENCE, Rate 50 g/ha): 1; Plant response rating, Rape (rape; Rate 200 g/ha, POSTEMERGENCE): 10; Plant response rating, Rape (rape; Rate 200 g/ha, PREEMERGENCE): 9; Plant response rating, Sorghum (sorghum; POSTEMERGENCE, Rate 50 g/ha): 4; Plant response rating, Sorghum (sorghum; PREEMERGENCE, Rate 50 g/ha): 2; Plant response rating, Sorghum (sorghum; Rate 200 g/ha, POSTEMERGENCE): 7; Plant response rating, Sorghum (sorghum; Rate 200 g/ha, PREEMERGENCE): 3; Plant response rating (0 to 100), Rice Japonica (rice; [7]): 0; Plant response rating (0 to 100), Rice Japonica (rice; [8]): 20; Plant response rating (0 to 100), Rice Japonica (rice; [9]): 45; Plant response rating Rice Japonica (rice; [10]): 60; Plant response rating, Barnyardgrass (barnyardgrass; POSTEMERGENCE, Rate 50 g/ha): 9; Plant response rating, Barnyardgrass (barnyardgrass; POSTEMERGENCE, Rate 200 g/ha): 9; Plant response rating, Barnyardgrass (barnyardgrass; PREEMERGENCE, Rate 50 g/ha): 5; Plant response rating, Barnyardgrass (barnyardgrass; Rate 200 g/ha, PREEMERGENCE): 9; Plant response rating, Giant foxtail (giant foxtail [6]; POSTEMERGENCE, Rate 50 g/ha): 5; Plant response rating, Giant foxtail (giant foxtail [6]; PREEMERGENCE, Rate 50 g/ha): 9; Plant response rating, Giant foxtail (giant foxtail [6]; Rate 200 g/ha, POSTEMERGENCE): 7; Plant response rating, Giant foxtail (giant foxtail [6]; Rate 200 g/ha, PREEMERGENCE): 10; Plant response rating, Barley (barley; POSTEMERGENCE, Rate 50 g/ha): 5; Plant response rating, Barley (barley; POSTEMERGENCE, Rate 200 g/ha): 7; Plant response rating, Barley (barley; PREEMERGENCE, Rate 50 g/ha): 2; Plant response rating, Barley (barley; Rate 200 g/ha, PREEMERGENCE): 3; Plant response rating Downy Brome (downy brome; POSTEMERGENCE): 90; Plant response rating (0 to 100), Downy Brome (downy brome; POSTEMERGENCE, Rate 2 g/ha): 10; Plant response rating Downy Brome (downy brome; PREEMERGENCE): 50; Plant response rating (0 to 100), Downy Brome (downy brome; PREEMERGENCE, Rate 2 g/ha): 0; Plant response rating (0 to 100), Downy Brome (downy brome; Rate 8 g/ha, POSTEMERGENCE): 20; Plant response rating (0 to 100), Downy Brome (downy brome; Rate 8 g/ha, PREEMERGENCE): 0; Plant response rating (0 to 100), Downy Brome (downy brome; Rate 31 g/ha, POSTEMERGENCE): 50; Plant response rating (0 to 100), Downy Brome (downy brome; Rate 31 g/ha, PREEMERGENCE): 0
